Results taken from patent US20100130736A1, “METHODS OF CREATING AN INDEX” (priority 2008, published 2010).
Where two headings read alike, the source gives them in different places. Where no end group is shown, it is not given here.

System: A549 cells
Assay: Epic DMR agonist mode (primary profile, target panning) in A549 cells
Assay type: cell-based, human
Conditions: for ligand-induced DMR signal (second ligand panel): FIG. 8: 40 μM pinacidil, 250 μg/ml poly (I:C), 8 μM PMA, 16 μM forskolin
Text: Epic® wavelength interrogation system (Corning Inc., Corning, N.Y.) was used for whole cell sensing. This system consists of a temperature-control unit, an optical detection unit, and an on-board liquid handling unit with robotics. The detection unit is centered on integrated fiber optics, and enables kinetic measures of cellular responses with a time interval of ±15 sec.
For biosensor cellular assays, molecule solutions were made by diluting the stored concentrated solutions with the HBSS (1× Hanks balanced salt solution, plus 20 mM Hepes, pH 7.1), and transferred into a 384 well polypropylene molecule storage plate to prepare a molecule source plate. Both molecule and marker source plates were made separately when a two-step assay was performed. In parallel, the cells were washed twice with the HBSS and maintained in 30 μl of the HBSS to prepare a cell assay plate. Both the cell assay plate and the molecule and marker source plate(s) were then incubated in the hotel of the reader system. After ˜1 hr of incubation the baseline wavelengths of all biosensors in the cell assay microplate were recorded and normalized to zero. Afterwards, a 2 to 10 minute continuous recording was carried out to establish a baseline, and to ensure that the cells reached a steady state. Cellular responses were then triggered by pipetting 10 μl of the marker solutions into the cell assay plate using the on-board liquid handler.
First, a panel of ligands targeting GPCRs, each at 10 μM concentration, was chosen, and examined their actions on the A549 cells using DMR measurements with the Epic® system. The ligand panel included the four P2Y agonists ADP, […], UTP and UDP, the adenosine receptor agonist adenosine, the calcium sensing receptor agonist spermine, the histamine receptor agonist histamine, the adrenergic receptor agonist epinephrine, the free fatty acid receptor agonist elaidic acid, the lipoxin receptor agonist lipoxin A4, the bradykinin receptor agonist bradykinin, the adrenodullin receptor agonist adrenodullin, the PAR1 agonist SFLLR-amide, the angiotensin receptor agonist angiotensin, the neuropeptide Y receptor agonist neuropeptide Y, and the PAR2 agonist SLIGKV-amide.
Next, a second ligand panel was chosen, and examined their actions on the A549 cells using DMR measures with the Epic® system. The panel included the protein kinase C activator PMA, the endogenous KATP ion channel activator pinacidil, the adenylyl cyclase activator forskolin, and endogenous Toll-like receptor (TLR) activator poly(I:C).
A DMR index was generated for four ligand molecules. Quiescent A431 and proliferating A549 cells were separately exposed to the ligand molecules for about 1 hr to generate their primary profiles, followed by stimulation with each marker at a fixed concentration (as mentioned in FIGS. 7 and 8) for another 1 hr or so to generate secondary profiles of the molecule against the panels of markers in both types of cells. Next, one or more specific DMR parameters were chosen as a readout for plotting the DMR index of the molecule. For the pinacidil DMR response in A549, the amplitude of the N-DMR (i.e., the amplitude 30 min after stimulation) was chosen. For the poly(I:C) DMR response in A549, the amplitude of the late DMR (i.e., the amplitude 50 min after stimulation) was chosen. For the PMA response in A549, the late DMR amplitude (i.e., the amplitude 50 min after stimulation) was chosen. For the SLIGKV-amide DMR response in A549, the P-DMR amplitude (i.e., the amplitude 20 min after stimulation) was chosen. For the forskolin response in A549 cells, the P-DMR amplitude (i.e., the amplitude 50 min after stimulation) was chosen. For the histamine response in A549, both the early DMR amplitude (i.e., amplitude 10 min after stimulation) and the late response (i.e., the amplitude 30 min after stimulation) were chosen. For the epinephrine response in A431, the P-DMR amplitude (i.e., the amplitude 50 min after stimulation) was chosen.

[1] = A549, each ligand at 10 μM, FIGS. 3A and 3B

| Compound | ligand-induced DMR signal (GPCR ligand panel) [1] | also measured |
| --- | --- | --- |
| Nc1ncnc2c1ncn2[C@@H]1O[C@H](COP(=O)(O)OP(=O)(O)O)[C@@H](O)[C@H]1O [ADP] | robust DMR signals |  |
| Nc1ncnc2c1ncn2[C@@H]1O[C@H](COP(=O)(O)OP(=O)(O)OP(=O)(O)O)[C@@H](O)[C@H]1O [AT] | robust DMR signals |  |
| CCCCCCCCCCCCCC(=O)O[C@@H]1[C@@H](C)[C@@]2(O)[C@@H](C=C(CO)C[C@]3(O)C(=O)C(C)=C[C@@H]23)[C@@H]2C(C)(C)[C@]12OC(C)=O [PMA, Phorbol 12-myristate 13-acetate] |  | ligand-induced DMR signal (second ligand panel) (A549): robust DMR signals |
| O=c1ccn([C@@H]2O[C@H](COP(=O)(O)OP(=O)(O)O)[C@@H](O)[C@H]2O)c(=O)[nH]1 [UDP] | robust DMR signals |  |
| O=c1ccn([C@@H]2O[C@H](COP(=O)(O)OP(=O)(O)OP(=O)(O)O)[C@@H](O)[C@H]2O)c(=O)[nH]1 [UTP] | robust DMR signals |  |
| Nc1ncnc2c1ncn2[C@@H]1O[C@H](CO)[C@@H](O)[C@H]1O [adenosine] | robust DMR signals |  |
| CCCCCCCC/C=C/CCCCCCCC(=O)O [elaidic acid] | robust DMR signals |  |
| CNC[C@H](O)c1ccc(O)c(O)c1 [epinephrine] |  | ligand-induced DMR signal (GPCR ligand panel): robust DMR signals |
| NCCc1c[nH]cn1 [histamine] | robust DMR signals |  |
| CCCCC[C@H](O)/C=C/C=C\C=C\C=C\[C@@H](O)[C@@H](O)CCCC(=O)O [lipoxin A4] | robust DMR signals |  |
| CC(N/C(=N\C#N)Nc1ccncc1)C(C)(C)C (stereo not drawn) [pinacidil] |  | ligand-induced DMR signal (second ligand panel) (A549): robust DMR signals |
| NCCCNCCCCNCCCN [spermine] | robust DMR signals |  |
| SFLLR-amide | robust DMR signals |  |
| SLIGKV-NH2 | robust DMR signals |  |
| adrenodullin: adrenodullin receptor agonist (YRQSMNNFQGLRSFGCRFGTCTVQKLAHQIYQFTDKDKDNVAPRSKISPQGY; ends and bridges not checked; cysteine pairing not given here; UniProt P35318 95-146, looked up) | robust DMR signals |  |
| angiotensin | robust DMR signals |  |
| neuropeptide Y: neuropeptide Y receptor agonist | robust DMR signals |  |
| poly(I:C) |  | ligand-induced DMR signal (second ligand panel) (A549): robust DMR signals |
